Results on 1 compound are retold here after patent US20070021451A1, “Method for preventing or treating neurologic damage after spinal cord injury” (HAMAMATSU UNIVERSITY SCHOOL OF MEDICINE, priority 2005, published 2007).

A short description of data set [1]: Physiologic parameters (body weight, rectal temperature, mean arterial blood pressure) in rabbit model of spinal cord ischemia. The format is in vivo, New Zealand White rabbits. The method, then: (§1) Twenty-six male New Zealand White rabbits weighting 2.2 to 3.0 kg were used in this experiment. Spinal cord ischemia was induced by occluding the abdominal aorta with […] for 20 minutes just distal to the renal arteries. Surgical preparation was conducted according to the method described in the literature, Terada H. et. al., J. Thorac. Cardiovasc. Surg. 2001; 122: 979-85. A 24-gauge venous catheter was placed in the marginal ear vein for drug administration. The rabbits were anesthetized with intravenous sodium pentobarbital (25 mg/kg) and allowed to breathe spontaneously. Lidocaine (0.5%) was administered at the site of the skin incision as local anesthesia. The left common carotid artery was cannulated with a 24-gauge catheter for monitoring the arterial pressure. Core body temperature was continuously monitored with a rectal probe and was maintained at 38.5° C. with the aid of heating lamp. The infrarenal abdominal aorta was exposed through a transperitoneal approach. After systemic heparinization (200 U/kg), spinal cord ischemia was induced by occluding the abdominal aorta with […] for 20 minutes just distal to the renal arteries and just above the aortic bifurcation. Then, the […] released, and the flank was closed. […] The rabbits were assigned randomly to 1 of the 4 groups and subjected to the treatment of (1) above in the following manner. The sham group (n=3) underwent the same operation without aortic occlusion. The control group (n=7) received saline (1 ml) intravenously 15 minutes before aortic occlusion. NS-7 (1 mg/kg) was administered intravenously as a bolus dose 15 minutes before aortic occlusion in group A (n=8) or just after releasing the […] onset of reperfusion) in group B (n=8). All the animals survived the entire observation period. Body weight, rectal temperature, and mean arterial blood pressure values at baseline, 10 minutes after ischemia, and 10 minutes after reperfusion are shown in Table 1. There were no significant differences in the weights of the animals.

Data set [2] has as its system Rabbit Model of Spinal Cord Ischemia. Description: Histopathologic examination (HE staining, semiquantitative histologic score). The format is in vivo, New Zealand White rabbits. The method, then:
as §1, with “All animals were killed by means of a lethal injection of pentobarbital (200 mg/kg) 48 hours after operation. Spinal cords were quickly harvested and sectioned from” for “All”, “low thoracic level to” for “animals survived”, “low lumbar level into the following 4 segments: low thoracic (LT=T10-T12), upper lumbar (UL=L1-L2), mid lumbar (ML=L3-L4),” for “entire observation period. Body weight, rectal temperature,”, “low lumbar (LL=L5-L6). […]” for “mean arterial blood pressure values at baseline, 10 minutes after ischemia, and 10 minutes after reperfusion are shown in Table 1. There were no significant differences in the weights of the animals.”

[3] abbreviates: Group A (NS-7 1 mg/kg i.v. 15 min before aortic occlusion), Baseline.
[4] abbreviates: Group A (NS-7 1 mg/kg i.v. 15 min before aortic occlusion), Ischemia, 10 min.
The mark [5] stands for this setting: Group A (NS-7 1 mg/kg i.v. 15 min before aortic occlusion), Reperfusion, 10 min.
Setting [6] is: Group B (NS-7 1 mg/kg i.v. at onset of reperfusion), Baseline.
Setting [7] is: Group B (NS-7 1 mg/kg i.v. at onset of reperfusion), Ischemia, 10 min.
Where [8] appears, read: Group B (NS-7 1 mg/kg i.v. at onset of reperfusion), Reperfusion, 10 min.

As for `Cc1cc(-c2ccc(F)cc2)cc(OCCCCCN2CCCCC2)n1.Cl` [NS-7, 4-(4-Fluorophenyl)-2-methyl-6-(5-piperidinopentyloxy)pyridine hydrochloride], the “MAP (mean arterial blood pressure)” value is recorded as 83 ± 5 mmHg in data set [1] (setting [3]); 85 ± 5 mmHg in data set [1] (setting [4]); 78 ± 10 mmHg in data set [1] (setting [5]); 91 ± 6 mmHg in data set [1] (setting [6]); 86 ± 7 mmHg in data set [1] (setting [7]); 81 ± 8 mmHg in data set [1] (setting [8]). Also, the “Rectal Temp.” value was determined as 38.4 ± 0.7 °C in data set [1] (setting [3]); 38.1 ± 0.4 °C in data set [1] (setting [4]); 38.1 ± 0.2 °C in data set [1] (setting [5]); 38.5 ± 0.4 °C in data set [1] (setting [6]); 38.4 ± 0.5 °C in data set [1] (setting [7]); 38.6 ± 0.5 °C in data set [1] (setting [8]). Besides, in data set [2] (NS-7 before ischemia or at the onset of reperfusion, mid lumbar), the “Cellular damage in HE-stained sections (FIG. 3)” value is listed as “minimal evidence of cellular damage”. The “Histologic changes in the spinal cords” value in data set [2] (group A or group B, mid lumbar and low lumbar levels) is listed as “only slight changes”. The Average histologic scores result in data set [2] (group A or group B, mid lumbar and low lumbar levels, vs control group (FIG. 4)) was “significantly lower than those of the control group”.
